Results taken from patent US5763430A, “Method of treating a viral infection by administering a steroid compound” (priority 1995, dated 1998).

What was measured:
B16 melanoma = assay: suppression of growth of B16 melanoma in C57B mice; assay type: in vivo, mouse
Experimental: The growth of B16 melanoma in C57B mice is dependent upon neovascularization.
Using the growth of B16 melanoma cells in C57B mice, a recognized model for the evaluation of inhibitors of angiogenesis on the growth of cancers, the effects of subcutaneous, intraperitoneal and oral administration of squalamine were evaluated.
Based on the idea that tumor growth involves both the clonal expansion of a malignant cell along with the development of a supporting vascular supply, a combination of compound 1436 with squalamine was tested to determine whether it would achieve a synergistic effect on solid tumor growth. This concept was evaluated in the B16 melanoma model.
Animals were implanted with B16 melanoma followed by treatment with compound 1436 or 1256 administered in a combined schedule or separately. […] Thus, a combination of these two compounds achieves a therapeutic benefit in tumors dependent on neovascularization that may prevent metastatic spread.

[1] = test system: bovine pulmonary endothelial cells; assay: growth inhibition of endothelial cells in vitro (absorbance at 600 nm); assay type: cell-based; settings: 1 μg/ml, FIG. 3A
human lymphocytes = assay: inhibition of mitogen (PHA)-stimulated growth of human T-cells; settings: 10 μg/ml
Experimental: Specific assays were used to identify steroids with a particular biological activity, such as an assay for inhibition of mitogen-stimulated growth of human T-cells.
Human heparinized blood, freshly collected, was introduced into tissue culture flasks containing 10 μg/ml phytohaemagglutinin (PHA) in RPMI medium with 10% FCS. Various purified steroids were introduced subsequently at concentrations of 1, 5, and 10 μg/ml. Cultures were incubated for 72 hours, after which time colcemid was added to 1 μg/ml. Cultures were maintained for an additional 2 hours, and cells collected. Miotic figures were estimated using standard cytochemical techniques, following Giemsa staining.

CC(C)[C@@H](CC[C@@H](C)[C@H]1CC[C@H]2[C@@H]3[C@H](O)C[C@H]4C[C@@H](NCCCNCCCCN)CC[C@]4(C)[C@H]3CC[C@]12C)OS(=O)(=O)O [Compound 1256]
impact on tumor volume (B16 melanoma; 5 mg/kg/day alone, FIG. 12): no significant impact on tumor volume
body weight and hematologic parameters (B16 melanoma; mouse, in vivo): no significant depression
tumor volume (B16 melanoma; subcutaneous, intraperitoneal or oral, FIGS. 4A-4C): dose-dependent suppression of tumor volume
growth of bovine pulmonary artery endothelial cells [1]: inhibited the growth
inhibition of blast transformation (human lymphocytes): Some effect
